From patent US20240336606A1 (Suzhou Zelgen Biopharmaceuticals Co., Ltd., priority 2020, published 2024)
Counter-ions that a name gives are not always drawn.

Target: T1, binding of KRAS^G12C to SOS1 (Homo sapiens, UniProt Q07889)
T1 construct: Tag1 (unspecified)
T1 sequence (Q07889 1-1333): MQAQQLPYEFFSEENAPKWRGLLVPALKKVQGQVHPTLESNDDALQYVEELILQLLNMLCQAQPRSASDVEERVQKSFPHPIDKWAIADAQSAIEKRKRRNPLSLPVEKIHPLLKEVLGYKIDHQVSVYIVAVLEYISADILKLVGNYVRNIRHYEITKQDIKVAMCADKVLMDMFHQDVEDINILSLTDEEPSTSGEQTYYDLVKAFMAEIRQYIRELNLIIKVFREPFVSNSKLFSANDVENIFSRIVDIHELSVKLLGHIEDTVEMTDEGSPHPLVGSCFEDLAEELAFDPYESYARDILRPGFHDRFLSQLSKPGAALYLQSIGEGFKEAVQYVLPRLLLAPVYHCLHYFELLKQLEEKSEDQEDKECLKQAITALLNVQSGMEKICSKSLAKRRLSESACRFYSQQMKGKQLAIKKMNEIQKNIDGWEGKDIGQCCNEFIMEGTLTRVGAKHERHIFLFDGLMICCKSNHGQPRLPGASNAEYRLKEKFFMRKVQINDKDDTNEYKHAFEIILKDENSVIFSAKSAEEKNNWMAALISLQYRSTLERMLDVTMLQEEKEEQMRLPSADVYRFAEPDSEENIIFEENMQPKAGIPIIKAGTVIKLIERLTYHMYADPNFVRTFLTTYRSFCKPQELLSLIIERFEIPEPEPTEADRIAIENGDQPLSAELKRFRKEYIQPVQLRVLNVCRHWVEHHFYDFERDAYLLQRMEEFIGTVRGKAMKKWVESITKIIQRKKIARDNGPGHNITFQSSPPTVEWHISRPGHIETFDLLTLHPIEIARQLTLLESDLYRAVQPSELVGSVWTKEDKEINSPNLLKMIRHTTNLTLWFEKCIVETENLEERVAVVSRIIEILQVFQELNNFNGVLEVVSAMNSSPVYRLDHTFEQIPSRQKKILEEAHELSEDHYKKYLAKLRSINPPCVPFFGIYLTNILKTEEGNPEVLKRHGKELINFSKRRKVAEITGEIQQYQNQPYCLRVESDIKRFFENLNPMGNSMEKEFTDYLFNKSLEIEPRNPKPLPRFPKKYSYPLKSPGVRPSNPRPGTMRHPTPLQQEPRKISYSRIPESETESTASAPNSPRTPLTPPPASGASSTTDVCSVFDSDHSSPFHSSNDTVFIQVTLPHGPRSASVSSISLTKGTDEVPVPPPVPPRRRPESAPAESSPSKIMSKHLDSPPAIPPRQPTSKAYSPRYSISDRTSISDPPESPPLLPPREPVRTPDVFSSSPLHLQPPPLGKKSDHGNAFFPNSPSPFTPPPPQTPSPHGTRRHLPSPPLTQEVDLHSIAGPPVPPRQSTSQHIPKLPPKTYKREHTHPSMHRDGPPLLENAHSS
Assay: Inhibition of the binding of KRAS^G12C to SOS1
Details: Tag1-SOS1 / Tag2-KRAS^G12C, 2 h incubation at room temperature; read-out: IC50 (nM), inhibitory activity on the binding of KRAS^G12C to SOS1
Method: • (1) Gradient dilution of the test compounds: 10 mM mother solution (dissolved in 100% DMSO) was added to a 384-well test plate, the final content of DMSO being 0.25%.
(2) 5 μL of Tag1-SOS1 solution was added to the test plate, and 5 μL of dilution buffer was added to the control group.
(3) 5 μL of Tag2-KRAS^G12C solution was added to the test plate.
(4) 10 μL of Anti-Tag1-Tb3+ and Anti-Tag2-XL665 detection solution were added to the test plate. The plate was centrifuged at 1000 rpm for 1 min and incubated at room temperature for 2 h.
(6) The IC50 values for the compounds were finally calculated using GraphPad Prism software, and a curve was fit and plotted.
The inhibitory activity of the compounds of the examples of the present invention on the binding of KRAS^G12C enzyme to SOS1 is shown in Table 1.

SMILES | IC50 [nM]
Cc1nc(N[C@H](C)c2cc(N)cc(C(F)(F)F)c2)c2cc(OCCOC3CC3)c(C(F)(F)F)cc2n1 [Example 45, (R)—N-(1-(3-Amino-5-(trifluoromethyl)phenyl)ethyl)-6-(2-cyclopropoxyethoxy)-2-methyl-7-(trifluoromethyl)quinazolin-4-amine] | 167
COc1cc2nc(C)nc(N[C@H](C)c3cc(N)cc(C(F)(F)F)c3)c2cc1OC[C@@H]1CCC(=O)N1C [Example 6, (S)-5-(((4-(((R)-1-(3-amino-5-(trifluoromethyl)phenyl)ethyl)amino)-7-methoxy-2-methylquinazolin-6-yl)oxy)methyl)-1-methylpyrrolin-2-one] | 13
COc1cc2nc(C)nc(N[C@H](C)c3cccc(C(F)(F)F)c3F)c2cc1OCC1(CO)CC1 [Example 55, (R)-(1-(((4-((1-(2-Fluoro-3-(trifluoromethyl)phenyl)ethyl)amino)-7-methoxy-2-methylquinazolin-6-yl)oxy)methyl)cyclopropyl)methanol] | 16
COc1cc2nc(C)nc(N[C@H](C)c3cccc(C(F)(F)C(C)(C)O)c3F)c2cc1OC[C@@H]1CN(C)CCO1 [Example 25] | 3.9
COc1cc2nc(C)nc(N[C@H](C)c3cccc(C(F)(F)F)c3F)c2cc1OC[C@@H]1CCCN1S(C)(=O)=O [Example 20, N—((R)-1-(2-fluoro-3-(trifluoromethyl)phenyl)ethyl)-7-methoxy-2-methyl-6-(((S)-1-(methylsulfonyl)pyrrolidin-2-yl)methoxy)quinazolin-4-amine] | 121
COc1cc2nc(C)nc(N[C@H](C)c3cc(N)cc(C(F)(F)F)c3)c2cc1OCCN(C)CC1CCC1 [Example 10] | 2.9
COc1cc2nc(C)nc(N[C@H](C)c3cccc(C(F)(F)C(C)(C)O)c3F)c2cc1OC[C@H]1CNCCO1 [Example 23] | 7.9
COc1cc2nc(C)nc(N[C@H](C)c3cc(N)cc(C(F)(F)F)c3)c2cc1OCC1(CN2CCOCC2)CC1 [Example 15, (R)—N-(1-(3-amino-5-(trifluoromethyl)phenyl)ethyl)-7-methoxy-2-methyl-6-((1-(morpholinylmethyl)cyclopropyl)methoxy)quinazolin-4-amine] | 6.9
COc1cc2nc(C)nc(N[C@H](C)c3cc(N)cc(C(F)(F)F)n3)c2cc1OCCOC1COC1 [Example 70, (R)—N-(1-(4-Amino-6-(trifluoromethyl)pyridin-2-yl)ethyl)-7-methoxy-2-methyl-6-(2-(oxetan-3-yloxy)ethoxy)quinazolin-4-amine] | 24
COc1cc2nc(C)nc(N[C@H](C)c3cc(N)cc(C(F)(F)F)c3)c2cc1OCC1(OC)CC1 [Example 46, (R)—N-(1-(3-Amino-5-(trifluoromethyl)phenyl)ethyl)-7-methoxy-6-((1-methoxycyclopropyl)methoxy)-2-methylquinazolin-4-amine] | 10
COc1cc2nc(C)nc(N[C@H](C)c3cc(N)cc(C(F)(F)F)c3)c2cc1OCCOC1(C)COC1 [Example 61, (R)—N-(1-(3-Amino-5-(trifluoromethyl)phenyl)ethyl)-7-methoxy-2-methyl-6-(2-((3-methyloxetan-3-yl)oxy)ethoxy)quinazolin-4-amine] | 3.7
COc1cc2nc(C)nc(N[C@H](C)c3cccc(C(F)(F)C(C)(C)O)c3F)c2cc1OC[C@@H]1CCCN1C [Example 1] | 4.6
COc1cc2nc(C)nc(N[C@H](C)c3cc(N)cc(C(F)(F)F)c3)c2cc1OC[C@@H]1COCCO1 [Example 28, 6-(((S)-1,4-Dioxan-2-yl)methoxy)-N—((R)-1-(3-amino-5-(trifluoromethyl)phenyl)ethyl)-7-m ethoxy-2-methylquinazolin-4-amine] | 7.9
COc1cc2nc(C)nc(N[C@H](C)c3cccc(C(F)(F)C(C)(C)O)c3F)c2cc1OCCN(C)S(C)(=O)=O [Example 33, (R)—N-(2-((4-((1-(3-(1,1-Difluoro-2-hydroxy-2-methylpropyl)-2-fluorophenyl)ethyl)amino)-7-methoxy-2-methylquinazolin-6-yl)oxy)ethyl)-N-methylmethanesulfonamide] | 7.5
COCCOc1cc2c(N[C@@H](C)c3cccc(C(F)(F)C(C)(C)O)c3F)nc(C)nc2cc1OC [Example 71, (S)-1,1-Difluoro-1-(2-fluoro-3-(1-((7-methoxy-6-(2-methoxyethoxy)-2-methylquinazolin-4-yl)amino)ethyl)phenyl)-2-methylpropan-2-ol formate] | 314
COc1cc2nc(C)nc(N[C@H](C)c3cc(N)cc(C(F)(F)F)c3)c2cc1OCCO[C@H]1CCOC1 [Example 66, N—((R)-1-(3-Amino-5-(trifluoromethyl)phenyl)ethyl)-7-methoxy-2-methyl-6-(2-(((S)-tetrahydrofuran-3-yl)oxy)ethoxy)quinazolin-4-amine] | 7
COc1cc2nc(C)nc(N[C@H](C)c3cc(N)cc(C(F)(F)F)c3)c2cc1OCCCOC1CC1 [Example 53, (R)—N-(1-(3-Amino-5-(trifluoromethyl)phenyl)ethyl)-6-(3-cyclopropoxypropoxy)-7-methox y-2-methylquinazolin-4-amine] | 3.7
COc1cc2nc(C)nc(N[C@H](C)c3cc(N)cc(C(F)(F)F)c3)c2cc1OC[C@@H]1CCCN1C(C)=O [Example 14] | 16
COc1cc2nc(C)nc(N[C@H](C)c3cc(N)cc(C(F)(F)F)c3)c2cc1OCC1(CN(C)C)CC1 [Example 11, (R)—N-(1-(3-amino-5-(trifluoromethyl)phenyl)ethyl)-6-((1-((dimethylamino)methyl)cyclopropyl)methoxy)-7-methoxy-2-methylauinazolin-4-amine] | 3.6
COc1cc2nc(C)nc(N[C@H](C)c3cc(N)cc(C(F)(F)F)c3F)c2cc1OCCOC1CC1 [Example 35, (R)—N-(1-(5-Amino-2-fluoro-3-(trifluoromethyl)phenyl)ethyl)-6-(2-cyclopropoxyethyloxy)-7-methoxy-2-methylquinazolin-4-amine] | 17
COc1cc2nc(C)nc(N[C@H](C)c3cc(N)cc(C(F)(F)F)c3)c2cc1OCCOc1cccnc1 [Example 62, (R)—N-(1-(3-Amino-5-(trifluoromethyl)phenyl)ethyl)-7-methoxy-2-methyl-6-(2-(pyridin-3-yloxy)ethoxy)quinazolin-4-amine] | 5.3
COc1cc2nc(C)nc(N[C@H](C)c3cc(N)cc(C(F)(F)F)c3)c2cc1OCC1(N(C)C)CC1 [Example 34, (R)—N-(1-(3-Amino-5-(trifluoromethyl)phenyl)ethyl)-6-((1-(dimethylamino)cyclopropyl)methoxy)-7-methoxy-2-methylquinazolin-4-amine] | 5.4
COc1cc2nc(C)nc(N[C@H](C)c3cc(N)cc(C(F)(F)F)c3)c2cc1OCCO[C@@H]1CCOC1 [Example 67, N—((R)-1-(3-Amino-5-(trifluoromethyl)phenyl)ethyl)-7-methoxy-2-methyl-6-(2-(((R)-tetrahydrofuran-3-yl)oxy)ethoxy)quinazolin-4-amine] | 4.2
COc1cc2nc(C)nc(N[C@H](C)c3cc(N)cc(C(F)(F)F)c3)c2cc1OC[C@@H]1CCCN1C [Example 2] | 8.5
COCC1(C(C)Oc2cc3c(N[C@H](C)c4cc(N)cc(C(F)(F)F)c4)nc(C)nc3cc2OC)CC1 (stereo partly drawn) [Example 63, N—((R)-1-(3-Amino-5-(trifluoromethyl)phenyl)ethyl)-7-methoxy-6-(1-(1-(methoxymethyl)cyclopropyl)ethoxy)-2-methylquinazolin-4-amine] | 12
